Like-named read-outs stand apart in the source and are kept apart here.

One assay has as its system OVCAR-4. Type of assay: cell-based, human.
In assay [1] the test system is OVCAR-8.
For assay [2], the system named is OVCAR-8. In words: cells. To be noted: Homo sapiens.
The test system of assay [3] is MCF-7 (human breast cancer cells). In words: cells. It is filed as cell-based.
Experimental: Cells were seeded in 96-well microtiter plates at densities of 1000 cells/well. The optimal seeding density was determined to ensure exponential growth in control wells throughout the experimental period and to obtain a linear relationship between absorbance at 492 nm and cell number when analyzed by the sulforhodamine B (SRB) assay (43). 24 hours after seeding the cells were incubated for 1 hour or continuously for 3 days with the drugs (concentration range 0.01 to 500 pM). The cells were washed once and then incubated in drug free medium for 6 days. At the end of the incubation cell growth was determined by the SRB assay, which quantifies viable cells by measuring their total cellular protein content. […] Similar studies were conducted against the growth of PC3 (human prostate cancer cells) and MCF-7 (human breast cancer cells).
For the next assay, the system named is HL-60 (TB). Kind of assay: NCI in-vitro cytotoxicity screen, Leukemia panel. It is filed as cell-based, human.
The next assay deals with HOP-92. In words: cells. The conditions noted are these: Homo sapiens.
The subject of the next assay is MDA-N. Kind of assay: cells. To be noted: Homo sapiens.
A further assay relates to CCRF-CEM. Kind of assay: cells. The conditions noted are these: Homo sapiens.

Experimental for HL-60 (TB): The compounds of this invention were also tested against the panel of 60 human cancer cell lines at the National Cancer Institute, Bethesda, Md. […] The cytotoxicity studies were conducted using a 48 hour exposure, and measuring the optical density of sulforhodamine B-derived color.
Experimental for human H522 lung cancer: For these assays, human tumor cells are cultivated in polyvinylidene fluoride (PVDF) hollow fibers, and a sample of each cell line is implanted into each of two physiologic compartments (intraperitoneal and subcutaneous) in mice. […] Three mice are treated with potential antitumor compounds at each of 2 test doses by the intraperitoneal route using a QD×4 treatment schedule. Vehicle controls consist of 6 mice receiving the compound diluent only. The fiber cultures are collected on the day following the last day of treatment. To assess anticancer effects, viable cell mass is determined for each of the cell lines using a formazan dye (MTT) conversion assay. From this, the %T/C can be calculated using the average optical density of the compound treated samples divided by the average optical density of the vehicle controls. In addition, the net increase in cell mass can be determined for each sample as a sample of fiber cultures are assessed for viable cell mass on the day of implantation into mice. Thus, the cytostatic and cytocidal capacities of the test compound can be assessed.
The data are reported as %T/C for each of the 2 compound doses against each of the cell lines with separate values calculated for the intraperitoneal and subcutaneous samples.
Compounds are selected for further in vivo testing in standard subcutaneous xenograft models on the basis of several hollow fiber assay criteria. […] The intraperitoneal and subcutaneous samples are scored separately so that criteria (1) and (2) can be evaluated. Compounds with a combined IP+SC score≧20, a SC score×8 or a net cell kill of one or more cell lines are referred for xenograft testing. These criteria were statistically validated by comparing the activity outcomes of ≧80 randomly selected compounds in the hollow fiber assay and in the xenograft testing.

As for “4-(2-Chloroethyl)-3-[5-(5-benzofuran-2-carboxamido)indole-2-carboxamido]phenol [Compound 1]”, the 50% growth inhibitory concentration (GI50) with MDA-MB-231/ATCC was 2430 nM; in the assay on RPMI-8226, 1860 nM; with SF-268 it was 13.4 µM; in the assay with NCI-H226, 4.09 µM; in the assay on OVCAR-4 it was 2390 nM; in the assay with PC-3, 969 nM. The GI50 with TK-10 came to 2450 nM; with SF-539, 1920 nM; in the assay with OVCAR-8 [1] it was 1320 nM. Also, the TGI in the assay on MDA-MB-231/ATCC is given as 7.10E-06 Molar; in the assay with RPMI-8226, 5.59E-06 Molar; with SF-268, 2.78e-05 Molar; with NCI-H226 it was 1.62E-05 Molar; in the assay on OVCAR-4 it was 5.06E-06 Molar; in the assay with PC-3 it was 3.99E-06 Molar. For the same molecule, the figures for the TGI with TK-10, in the assay with SF-539 and in the assay on OVCAR-8 [1] were 5.85E-06 Molar, 4.16E-06 Molar and 3.28E-06 Molar, respectively. Also, the “Percent Growth” value was −65% with MDA-MB-231/ATCC (Log10 Concentration (Molar) −4.0), 92% with MDA-MB-231/ATCC (Log10 Concentration (Molar) −6.0), 97% in the assay with MDA-MB-231/ATCC (Log10 Concentration (Molar) −7.0) and 94% in the assay on MDA-MB-231/ATCC (Log10 Concentration (Molar) −8.0). For the same molecule, in the assay with human H522 lung cancer, the “IP+SC score” value was found to be 18. Besides, the cell kill result with human H522 lung cancer is “significant cells kill was observed”. In the assay with human H522 lung cancer (intraperitoneal fibers), this molecule gave an IP score of 8. In the assay with human H522 lung cancer (subcutaneous fibers), this molecule registered an SC score of 10.

Consider `COC(=O)c1[nH]c2c(O)cc(NC(=O)c3cc4cc(OC)c(OC)c(OC)c4[nH]3)c(CCCl)c2c1C(=O)OC` [Compound 22, Dimethyl 4-(2-chloroethyl)-7-hydroxy-5-(5,6,7-trimethoxyindole-2-carboxamido)indole-2,3-dicarboxylate], for which the GI50 in the assay on OVCAR-8 [2] (OVCAR-8) is 70.9 nM; in the assay on HL-60 (TB) (Homo sapiens, HL-60 (TB)) it was 60.4 nM; with HOP-92 (HOP-92) it was 179 nM; with MDA-N it was 150 nM; in the assay on CCRF-CEM, 31.8 nM. Moreover, the CC50 is 1760 nM with OVCAR-8 [2] (OVCAR-8, read-out: LC50); over 50 µM in the assay on HL-60 (TB) (Homo sapiens, HL-60, read-out: LC50); over 50 µM in the assay on HOP-92 (HOP-92, read-out: LC50); over 50 µM with MDA-N (read-out: LC50); over 50 µM in the assay on CCRF-CEM (read-out: LC50). The IC50 in assay [3] (MCF7, MCF-7, 1 hour exposure) stood at 970 nM; in assay [3] (MCF7, MCF-7, Continuous exposure), 130 nM. Also, the “Percent Growth” value in the assay with HL-60 (TB) (HL-60 (TB), Log10 Concentration −4.3) is reported as 3%; in the assay with HL-60 (TB) (HL-60 (TB), Log10 Concentration −5.3) it was 9%.

Source of the values: patent US20030073731A1, “Compositions and methods of the use thereof achiral analogues of CC-1065 and the duocarmycins” (priority 2000, published 2003).
